Laboratory results reported in US20220273008A1, “PLANT BODY CONTAINING NOVEL STEVIOL GLYCOSIDE” (SUNTORY HOLDINGS LIMITED, priority 2019, published 2022).
Values joined by “and” are separate entries in the source; they are usually repeats but may differ in a detail not shown here. Identical values can stand only once.

Experiments:
[1] = Evaluation of sweetness level: choosing the sugar-added sample of equivalent sweetness intensity, trained panelists; assay type: in vivo, human; settings: for Sweetness level, Average / Sweetness level, Highest / Sweetness level, Lowest: 48 mg in 400 mL pure water vs sugar samples of Brix 3.0 to 5.0, relative to sugar; for sweetness compared with sugar (in words): in vivo
Description: In order to evaluate the sweetness levels of Novel steviol glycosides A and B, samples were prepared by adding sugar to pure water to give Brix of 3.0 to 5.0 in 0.5 increments. Compounds 15 and 17 obtained by the chemical syntheses were used as Novel steviol glycosides A and B, respectively, where 48 mg of each sample was dissolved in 400 mL of pure water to be tested. In addition, samples were also prepared for comparison by dissolving 48 mg of each of Reb.A, Reb.D and Reb.M in 400 mL of pure water.

[2] = Sensory evaluation of taste quality of beverage samples (sweetness on-set, lingering sweet aftertaste, bitterness, lingering bitter aftertaste); assay type: in vivo, human; settings: beverage samples in pure water adjusted to Brix 5 in terms of sugar, compared with Reb.A, Reb.D, Reb.M and sugar
Text: In order to evaluate the taste quality of various steviol glycosides, Reb.A, Reb.D, Reb.M, sugar and Novel steviol glycoside A (Compound 15) were each added to pure water to prepare beverage samples. All of the beverage samples were adjusted to have final sweetness level (Brix) of 5 in terms of sugar (sucrose), and thus the sweetness levels of Reb.A, Reb.D, Reb.M and Novel steviol glycoside A (Compound 15) were 312, 317, 341 and 354, respectively.
(§1) The resulting beverage samples were subjected to sensory evaluation for rating the attributes, which were sweetness on-set, lingering sweet aftertaste, bitterness and lingering bitter aftertaste. Panelists who had been trained about sensory attributes of sweeteners (7 members) evaluated based on the following evaluation criteria. For each evaluation item, the steviol glycosides were scored in 0.5 increments provided that the score of sugar was 3. A higher score represents faster sweetness on-set, shorter lingering sweet aftertaste, less bitterness and shorter lingering bitter aftertaste. The evaluation scores shown in the diagram are the average scores of the scores from the 8 panelists.
In order to evaluate the taste quality of various steviol glycosides, Reb.A, Reb.D, Reb.M, sugar and Novel steviol glycoside B (Compound 17) were each added to pure water to prepare beverage samples. All of the beverage samples were adjusted to have final sweetness level (Brix) of 5 in terms of sugar (sucrose), and thus the sweetness levels of Reb.A, Reb.D, Reb.M and Novel steviol glycoside B (Compound 17) were 288, 310, 324 and 250, respectively.
as §1, with “shorter lingering aftertaste. The” for “shorter lingering bitter aftertaste. The”, “from the 6 panelists.” for “from the 8 panelists.”

[3] = background art; cited from earlier work
[4] = evaluation of Novel steviol glycoside A (Table 10), 7 panelists
[5] = evaluation of Novel steviol glycoside B (Table 11)

| SMILES | Sweetness level, Average [1, 4] | Sweetness level, Highest [1, 4] | Sweetness level, Lowest [1, 4] | sweetness compared with sugar (in words) [1] | bitterness [2] | Sweetness level, Average [1, 5] | Sweetness level, Highest [1, 5] | Sweetness level, Lowest [1, 5] | sweetness, times the sweetness of sugar [3] | further results |
| --- | --- | --- | --- | --- | --- | --- | --- | --- | --- | --- |
| C=C1CC23CCC4C(C)(C(=O)OC5OC(CO)C(O)C(O)C5OC5OCC(O)C(O)C5O)CCCC4(C)C2CCC1(OC1OC(CO)C(O)C(OC2OC(CO)C(O)C(O)C2O)C1OC1OC(CO)C(O)C(O)C1O)C3 (stereo not drawn) [Novel steviol glycoside A] | 354 and 354.1 | 415.8 | 319.0 | sweeter than sugar | less bitterness as compared to other components including sugar | – | – | – | – | sweetness level higher in average than that of sugar ([1]; average of panelists, 48 mg in 400 mL pure water): about 354 times; lingering bitter aftertaste [2]: shorter lingering bitter aftertaste as compared to other glycosides; lingering sweet aftertaste [2]: less sweetness; bitterness ([2]; listed as Glycoside A): weaker bitterness than other components including sugar; lingering bitter aftertaste ([2]; listed as Glycoside A): less lingering sweet and bitter aftertastes; lingering sweet aftertaste ([2]; listed as Glycoside A): less lingering sweet and bitter aftertastes |
| C=C1CC23CCC4C(C)(C(=O)OC5OC(CO)C(O)C(OC6OC(CO)C(O)C(O)C6O)C5OC5OC(CO)C(O)C(O)C5O)CCCC4(C)C2CCC1(OC1OC(CO)C(O)C(OC2OC(CO)C(O)C(O)C2O)C1OC1OCC(O)C(O)C1O)C3 (stereo not drawn) [Novel steviol glycoside B] | – | – | – | sweeter than sugar | weaker bitterness than other steviol glycosides | – | – | – | – | – |
| C=C1C[C@@]23CC[C@H]4[C@@](C)(CCC[C@@]4(C)C(=O)O[C@@H]4O[C@H](CO)[C@@H](O)[C@H](O)[C@H]4O)[C@@H]2CC[C@]1(O[C@@H]1O[C@H](CO)[C@@H](O)[C@H](O[C@@H]2O[C@H](CO)[C@@H](O)[C@H](O)[C@H]2O)[C@H]1O[C@@H]1O[C@H](CO)[C@@H](O)[C@H](O)[C@H]1O)C3 [Reb A, rebaudioside A] | 312.0 | 398.9 | 243.0 | – | – | 288.3 | 329.2 | 239.5 | 350-450 times | Sweetness level, Average ([1]; evaluation of Novel steviol glycoside A (Table 10), 7 panelists, listed as Reb.A): 312; Sweetness level, Average ([1]; evaluation of Novel steviol glycoside B (Table 11), listed as Reb.A): 288 |
| C=C1C[C@@]23CC[C@H]4[C@@](C)(CCC[C@@]4(C)C(=O)O[C@@H]4O[C@H](CO)[C@@H](O)[C@H](O)[C@H]4O[C@@H]4O[C@H](CO)[C@@H](O)[C@H](O)[C@H]4O)[C@@H]2CC[C@]1(O[C@@H]1O[C@H](CO)[C@@H](O)[C@H](O[C@@H]2O[C@H](CO)[C@@H](O)[C@H](O)[C@H]2O)[C@H]1O[C@@H]1O[C@H](CO)[C@@H](O)[C@H](O)[C@H]1O)C3 [RebD, rebaudioside D] | 317.9 | 398.0 | 253.5 | – | – | 310.3 | 393.6 | 241.1 | – | Sweetness level, Average ([1]; evaluation of Novel steviol glycoside A (Table 10), 7 panelists, listed as Reb.D): 317; Sweetness level, Average ([1]; evaluation of Novel steviol glycoside B (Table 11), listed as Reb.D): 310 |
| C=C1C[C@@]23CC[C@H]4[C@@](C)(CCC[C@@]4(C)C(=O)O[C@@H]4O[C@H](CO)[C@@H](O)[C@H](O[C@@H]5O[C@H](CO)[C@@H](O)[C@H](O)[C@H]5O)[C@H]4O[C@@H]4O[C@H](CO)[C@@H](O)[C@H](O)[C@H]4O)[C@@H]2CC[C@]1(O[C@@H]1O[C@H](CO)[C@@H](O)[C@H](O[C@@H]2O[C@H](CO)[C@@H](O)[C@H](O)[C@H]2O)[C@H]1O[C@@H]1O[C@H](CO)[C@@H](O)[C@H](O)[C@H]1O)C3 [RebM, rebaudioside M] | 341.1 | 352.2 | 286.0 | – | – | 323.6 | 373.4 | 236.5 | – | Sweetness level, Average ([1]; evaluation of Novel steviol glycoside A (Table 10), 7 panelists, listed as Reb.M): 341; Sweetness level, Average ([1]; evaluation of Novel steviol glycoside B (Table 11), listed as Reb.M): 324 |
| C=C1C[C@@]23CC[C@H]4[C@@](C)(CCC[C@@]4(C)C(=O)O[C@@H]4O[C@H](CO)[C@@H](O)[C@H](O)[C@H]4O)[C@@H]2CC[C@]1(O[C@@H]1O[C@H](CO)[C@@H](O)[C@H](O)[C@H]1O[C@@H]1O[C@H](CO)[C@@H](O)[C@H](O)[C@H]1O)C3 [Stevioside] | – | – | – | – | – | – | – | – | 250-300 times | – |
